Test results reported in the supplement of paper PMC10627819.

Experiments:
S. pneumoniae D39V [1] = assay: fitness (endpoint OD595 vs no drug) (fraction); higher = more growth
Outline: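 In 384-well plates at 37 °C, cultures began at OD595 0.01 in 30 µl, with 55 µl used for S. pneumoniae. OD595 readings every 30 min for 14 h were corrected by the first reading. Fitness divides the stationary-phase transition optical density by the robust mean of no-drug control wells. The result is capped at 1.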

S. pneumoniae D39V [2] = assay: Bliss interaction score (quartile over a dose matrix) (fitness difference); higher = more antagonism (negative = synergy)
Outline: (§1)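 Fitness was OD595 at entry into stationary phase divided by the plate's robust no-drug mean and capped at 1; single-drug fitness was inferred from combination data. The Bliss score is observed minus expected (product) fitness, summarised by quartiles over technical, biological and donor/recipient replicates.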

B. subtilis 168 = assay: as above
Outline: as §1

S. aureus DSM 20231 = assay: as above
Outline: as §1

S. aureus Newman = assay: as above
Outline: as §1
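Throughout, for Bliss interaction score (quartile over a dose matrix): first quartile when negative (synergy) and third quartile when positive (antagonism).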

CO[C@H]1/C=C/O[C@@]2(C)Oc3c(C)c(O)c4c(O)c(c(/C=N/N5CCN(C)CC5)c(O)c4c3C2=O)NC(=O)/C(C)=C\C=C\[C@H](C)[C@H](O)[C@@H](C)[C@@H](O)[C@@H](C)[C@H](OC(C)=O)[C@@H]1C [Rifampicin] + CC1=C\[C@@H](O)CC(=O)Cc2nc(co2)C(=O)N2CCC=C2C(=O)O[C@H](C(C)C)[C@H](C)/C=C/C(=O)NC\C=C\1 [Virginiamycin M1]
S. pneumoniae D39V [1], one replicate
Details | fitness
first compound 0.025 µg/mL, partner 0.5 µg/mL | 0.876
first compound 0.025 µg/mL, partner 1 µg/mL | 0.905
first compound 0.025 µg/mL, partner 2 µg/mL | 0.822
first compound 0.05 µg/mL, partner 0.15 µg/mL | ≥ 1
first compound 0.05 µg/mL, partner 0.3 µg/mL | 0.993
first compound 0.1 µg/mL, partner 0.15 µg/mL | 0.891
first compound 0.1 µg/mL, partner 0.3 µg/mL | 0.884
first compound 0.2 µg/mL, partner 0.15 µg/mL | 0.267
first compound 0.2 µg/mL, partner 0.3 µg/mL | 0.203

S. pneumoniae D39V [1], first compound 0.2 µg/mL
Details | fitness
partner 0.5 µg/mL | 0.194
partner 1 µg/mL | 0.0581
partner 2 µg/mL | 0.129

Details | Bliss interaction score
B. subtilis 168 | -0.0938
S. aureus DSM 20231 | 0.0924
S. aureus Newman | -0.0218
S. pneumoniae D39V [2] | 0.111

CO[C@H]1/C=C/O[C@@]2(C)Oc3c(C)c(O)c4c(O)c(c(/C=N/N5CCN(C)CC5)c(O)c4c3C2=O)NC(=O)/C(C)=C\C=C\[C@H](C)[C@H](O)[C@@H](C)[C@@H](O)[C@@H](C)[C@H](OC(C)=O)[C@@H]1C [Rifampicin] + Cc1cc(NS(=O)(=O)c2ccc(N)cc2)no1 [Sulfamethoxazol]
S. pneumoniae D39V [1], first compound 0.025 µg/mL, one replicate
Details | fitness
partner 1 µg/mL | 0.837
partner 2 µg/mL | 0.831
partner 4 µg/mL | 0.828

fitness, S. pneumoniae D39V [1]
Details | partner 1 µg/mL | partner 2 µg/mL | partner 4 µg/mL
first compound 0.05 µg/mL | 0.933 | 0.93 | 0.853
first compound 0.2 µg/mL | 0.0772 | 0.0834 | 0.104

Details | Bliss interaction score
B. subtilis 168 | -0.052
S. aureus DSM 20231 | -0.0278
S. aureus Newman | -0.0257
S. pneumoniae D39V [2] | 0.0639

CO[C@H]1/C=C/O[C@@]2(C)Oc3c(C)c(O)c4c(O)c(c(/C=N/N5CCN(C)CC5)c(O)c4c3C2=O)NC(=O)/C(C)=C\C=C\[C@H](C)[C@H](O)[C@@H](C)[C@@H](O)[C@@H](C)[C@H](OC(C)=O)[C@@H]1C [Rifampicin] + CN[C@@H]1[C@H](O)[C@H](NC)[C@H]2O[C@@]3(O)C(=O)C[C@@H](C)O[C@H]3O[C@@H]2[C@H]1O [Spectinomycin]
fitness, S. pneumoniae D39V [1], one replicate
Details | partner 4 µg/mL | partner 8 µg/mL | partner 16 µg/mL
first compound 0.025 µg/mL | 0.848 | 0.716 | 0.282
first compound 0.2 µg/mL | – | – | 0

fitness, S. pneumoniae D39V [1]
Details | first compound 0.05 µg/mL | first compound 0.1 µg/mL | first compound 0.2 µg/mL
partner 4 µg/mL | 0.497 | 0.297 | 0.0634
partner 8 µg/mL | – | 0.202 | 0.069
partner 16 µg/mL | 0.23 | 0.204 | –

Details | Bliss interaction score
B. subtilis 168 | -0.0584
S. aureus DSM 20231 | -0.0309
S. aureus Newman | 0.0508
S. pneumoniae D39V [2] | -0.153

CC(=O)NC[C@H]1CN(c2ccc(N3CCOCC3)c(F)c2)C(=O)O1 [Linezolid] + Clc1ccc(COC(Cn2ccnc2)c2ccc(Cl)cc2Cl)c(Cl)c1 [Miconazole]
fitness, S. pneumoniae D39V [1]
Details | first compound 0.105 µg/mL | first compound 0.2 µg/mL | first compound 0.21 µg/mL | first compound 0.4 µg/mL | first compound 0.42 µg/mL | first compound 0.8 µg/mL
partner 1.073 µg/mL | – | 0.924 | – | 0.751 | – | 0.431
partner 1.25 µg/mL | 0.835 | – | 0.653 | – | 0.566 | –
partner 2.145 µg/mL | – | 0.929 | – | 0.765 | – | 0.428
partner 2.5 µg/mL | 0.807 | – | 0.691 | – | 0.524 | –
partner 4.29 µg/mL | – | 0.957 | – | 0.804 | – | 0.54
partner 5 µg/mL | 0.842 | – | 0.74 | – | 0.502 | –

Details | Bliss interaction score
B. subtilis 168 | 0.047
S. aureus DSM 20231 | -0.0366
S. aureus Newman | -0.0524
S. pneumoniae D39V [2] | 0.199

CC(=O)NC[C@H]1CN(c2ccc(N3CCOCC3)c(F)c2)C(=O)O1 [Linezolid] + O=C1CN(/N=C/c2ccc([N+](=O)[O-])o2)C(=O)N1 [Nitrofurantoin]
fitness, S. pneumoniae D39V [1]
Details | first compound 0.105 µg/mL | first compound 0.2 µg/mL | first compound 0.21 µg/mL | first compound 0.4 µg/mL | first compound 0.42 µg/mL | first compound 0.8 µg/mL
partner 1.285 µg/mL | – | 0.79 | – | 0.695 | – | 0.291
partner 2 µg/mL | 0.784 | – | 0.688 | – | 0.522 | –
partner 2.57 µg/mL | – | 0.791 | – | 0.683 | – | 0.259
partner 4 µg/mL | 0.795 | – | 0.705 | – | 0.488 | –
partner 8 µg/mL | 0.618 | – | 0.346 | – | 0.151 | –

S. pneumoniae D39V [1], partner 5.14 µg/mL, one replicate
Details | fitness
first compound 0.2 µg/mL | 0.735
first compound 0.4 µg/mL | 0.534
first compound 0.8 µg/mL | 0.239

Details | Bliss interaction score
B. subtilis 168 | -0.141
S. aureus DSM 20231 | -0.0317
S. aureus Newman | -0.0829
S. pneumoniae D39V [2] | -0.147

CO[C@H]1/C=C/O[C@@]2(C)Oc3c(C)c(O)c4c(O)c(c(/C=N/N5CCN(C)CC5)c(O)c4c3C2=O)NC(=O)/C(C)=C\C=C\[C@H](C)[C@H](O)[C@@H](C)[C@@H](O)[C@@H](C)[C@H](OC(C)=O)[C@@H]1C [Rifampicin] + CN[C@H](CC(C)C)C(=O)N[C@H]1C(=O)N[C@@H](CC(N)=O)C(=O)N[C@H]2C(=O)N[C@H]3C(=O)N[C@H](C(=O)N[C@H](C(=O)O)c4cc(O)cc(O)c4-c4cc3ccc4O)[C@H](O)c3ccc(c(Cl)c3)Oc3cc2cc(c3O[C@@H]2O[C@H](CO)[C@@H](O)[C@H](O)[C@H]2O[C@H]2C[C@](C)(N)[C@H](O)[C@H](C)O2)Oc2ccc(cc2Cl)[C@H]1O [Vancomycin]
fitness, S. pneumoniae D39V [1], one replicate
Details | partner 0.125 µg/mL | partner 0.25 µg/mL | partner 0.5 µg/mL
first compound 0.025 µg/mL | 0.903 | 0.823 | 0.267
first compound 0.2 µg/mL | – | 0 | 0

fitness, S. pneumoniae D39V [1]
Details | partner 0.03125 µg/mL | partner 0.0625 µg/mL | partner 0.125 µg/mL | partner 0.25 µg/mL | partner 0.5 µg/mL
first compound 0.05 µg/mL | 0.886 | 0.846 | – | 0.707 | 0.299
first compound 0.1 µg/mL | 0.537 | 0.476 | – | – | –
first compound 0.2 µg/mL | 0.162 | 0.161 | 0.0937 | – | –

Details | Bliss interaction score
B. subtilis 168 | 0.029
S. aureus DSM 20231 | -0.0199
S. aureus Newman | 0.0383
S. pneumoniae D39V [2] | 0.135

CO[C@H]1/C=C/O[C@@]2(C)Oc3c(C)c(O)c4c(O)c(c(/C=N/N5CCN(C)CC5)c(O)c4c3C2=O)NC(=O)/C(C)=C\C=C\[C@H](C)[C@H](O)[C@@H](C)[C@@H](O)[C@@H](C)[C@H](OC(C)=O)[C@@H]1C [Rifampicin] + CN(N=O)C(=O)N[C@@H](C=O)[C@@H](O)[C@H](O)[C@H](O)CO [Streptozotocin]
S. pneumoniae D39V [1], first compound 0.025 µg/mL, one replicate
Details | fitness
partner 1.2 µg/mL | 0.825
partner 2.4 µg/mL | 0.838
partner 4.8 µg/mL | 0.786

fitness, S. pneumoniae D39V [1]
Details | partner 1.2 µg/mL | partner 2.4 µg/mL | partner 4.8 µg/mL
first compound 0.05 µg/mL | 0.831 | 0.879 | 0.766
first compound 0.2 µg/mL | 0.0914 | 0.108 | 0

Details | Bliss interaction score
B. subtilis 168 | -0.0644
S. aureus DSM 20231 | 0.034
S. aureus Newman | -0.0244
S. pneumoniae D39V [2] | -0.0476
